Experimental data published in patent US20260240884A1, “MIXTURE OF HUMAN MILK OLIGOSACCHARIDES” (N.V. Nutricia, priority 2023, published 2026).

Assays:
[1] = test system: RSV-A2; assay: Pre-incubation of RSV-A2 with HMOs prior to infection of HEp-2 cells (Viral ToxGlo); type: cell-based, respiratory syncytial virus
[2] = test system: RSV-A2; assay: Pre-incubation of HEp-2 cells with HMOs before RSV-A2 infection (Viral ToxGlo); type: cell-based, respiratory syncytial virus
Procedure: To assess the effect of mixtures of HMOs on a negative-sense single-stranded RNA virus in vitro infection assays were performed with RSV-A2 strain. Pre-incubation of either HEp-2 cells or RSV-A2 with HMOs prior to infection was compared to assess anti-viral activity. Hep2 cells were exposed to the following conditions as discussed in more detail separately: • I. Pre-incubation of HEp-2 cells with HMOs before viral infection. • II.
HEp-2 cells were seeded in white [Greiner 655098]96 well plates in assay medium (EMEM [Sigma M2279]) supplemented with 2% heat-inactivated fetal bovine serum (HI-FBS) [Gibco 10500064], 1% Penicillin/streptomycin [Gibco 15140122] and 1% L-glutamine [Gibco 25030024] and incubated at 37° C. and 5% CO2 for 5 hours.
HMO mixtures were prepared in sterile water and ribavirin (compound that blocks viral RNA synthesis and viral mRNA capping) was prepared in 1% DMSO at 10× test concentration in a round-bottom 96-well plate [Corning 3788], then serially diluted 2-fold.
The following compounds were assessed for their capacity to inhibit RSV-A2 viral infection: • 2′-FL • A mixture of GOS:FOS at a 9:1 weight ratio • Total HMOs • Mixture of 5 HMOs • Mixture of 19 HMOs • 6′-SL
Test compounds were subsequently transferred to the HEp-2 cell plates. Additional assay medium was added to ensure a final HMO concentration range of 0.13-16 mg/mL. Cell plates were incubated for 24 hours at 37° cand 5% CO2.
After 24-hour incubation with the test conditions RSV-A2 was added to the HMO containing HEp-2 cell plates to achieve a final multiplicity of infection [MOI] of 0.5. Cell plates were incubated for a further 72 hours at 37° C. and 5% CO2.
Viral ToxGlo™ [Promega G8943] was added to the plates to assess cell metabolism following viral infection and HMO treatment. After 20 minutes incubation, luminescence of each plate was measured on a spectrophotometer. Data were analysed using GraphPad Prism software to determine the concentration effective in producing 50% of viral inhibition expressed as ECso values for ribavirin and HMOs where relevant.

[3] = test system: SARS-CoV2 WA1; type: cell-based; settings: virus pre-incubated 1 h with 0.5-16 mg/mL; MOI 0.1; 48 h; FIG. 1
[4] = test system: rotavirus (RV) strain SA11; assay: Caco-2 epithelial barrier model infected with rotavirus SA11 (TEER, lucifer yellow permeability); type: cell-based; settings: Caco-2, 5% (50 mg/ml) for 4 h before SA11 MOI 0.1; 20 h p.i.; FIG. 2A
[5] = test system: IL-8 secretion of HT-29 cells; assay: IL-8 secretion and viability of HT-29 cells pre-incubated with test compounds and challenged with Lyovec-complexed Poly I:C; type: cell-based, Human

SMILES | Maximum viral inhibition (%) ([1]; RSV-A2 pre-incubated 1 h, 0.13-16 mg/mL, MOI 0.5, 72 h) | Test concentration maximum viral inhibition ([1]; RSV-A2 pre-incubated 1 h, concentration at which the maximum inhibition was seen) [mg/mL] | antiviral activity (in words) ([1]; RSV-A2 pre-incubated prior to infection, both replicates (94-95% infection)) | Maximum viral inhibition (%) ([2]; HEp-2 cells pre-incubated 24 h, 0.13-16 mg/mL, RSV-A2 MOI 0.5, 72 h) | Test concentration maximum viral inhibition ([2]; HEp-2 cells pre-incubated 24 h, concentration at which the maximum inhibition was seen) [mg/mL] | anti-viral activity, replicate 1 (in words) ([2]; HEp-2 pre-incubation, replicate 1 (67% infection)) | viral neutralization efficacy (viral RNA by RT-qPCR) [3] | prevention of rotavirus induced decrease in TEER [4] | Mean IL-8 secretion ([5]; 0.1% + Poly I:C, Poly I:C alone 21799.28) [pg/mL] | Mean IL-8 secretion ([5]; 0.1%, no Poly I:C, Medium 359.54) [pg/mL]
CC(=O)N[C@H]1[C@H]([C@H](O)[C@H](O)CO)O[C@@](OC[C@H]2O[C@@H](O[C@H]3[C@H](O)[C@@H](O)[C@H](O)O[C@@H]3CO)[C@H](O)[C@@H](O)[C@H]2O)(C(=O)O)C[C@@H]1O [6′-SL, 6′-sialyllactose] | −0.58 | 1 | no anti-viral activity | 2.6 | 8 | no anti-viral activity | did not show viral neutralization efficacy |  |  | 
O=C[C@H](O)[C@@H](O)[C@H](O[C@@H]1O[C@H](CO)[C@@H](O)[C@H](O)[C@H]1O)[C@H](O)CO [Cellobiose, cellobiose] |  |  |  |  |  |  |  | no effect | 20023.80 | 277.94
